The NIST ThermoML archive (doi:10.1016/j.jct.2012.01.004)
Values joined by “and” are separate entries in the source; they are usually repeats but may differ in a detail not shown here. Equal values may be shown once. Numbers after ± are expanded uncertainties.

Columns and labels:
[1] = activity coefficient (dimensionless); of the first substance listed, at infinite dilution; xn = mol fraction of the nth substance listed; details: Gas, Chromatography, x1 = 0
[2] = 323.15 K; 101.33 kPa; Liquid; Vibrating tube method

activity coefficient ([1]; 313.15 K)	activity coefficient ([1]; 333.15 K)	activity coefficient ([1]; 353.15 K)	activity coefficient ([1]; 363.15 K)	mass density [2] [kg/m3]	Compound
2.02 and 2.2	1.75 and 1.79	1.51 and 1.48	1.44 and 1.43	–	C=CCCCCCC [oct-1-ene] + CCCCCCCCCCCCCC[P+](CCCCCC)(CCCCCC)CCCCCC.F[P-](F)(F)(F)(F)F
2.19 and 2.03	1.79 and 1.75	1.44 and 1.56	1.41 and 1.46	–	C#CCCCCCC [1-octyne] + CCCCCCCCCCCCCC[P+](CCCCCC)(CCCCCC)CCCCCC.F[P-](F)(F)(F)(F)F
2.53 and 2.49	2.12 and 2.18	1.87 and 1.83	1.81 and 1.74	–	CCCCCCCC [octane] + CCCCCCCCCCCCCC[P+](CCCCCC)(CCCCCC)CCCCCC.F[P-](F)(F)(F)(F)F
2.25 and 2.19	1.81 and 2	1.65 and 1.67	1.55 and 1.65	–	CCCCCCC [heptane] + CCCCCCCCCCCCCC[P+](CCCCCC)(CCCCCC)CCCCCC.F[P-](F)(F)(F)(F)F
1.96 and 2.07	1.69 and 1.79	1.48 and 1.5	1.43 and 1.47	–	CCCCCC [hexane] + CCCCCCCCCCCCCC[P+](CCCCCC)(CCCCCC)CCCCCC.F[P-](F)(F)(F)(F)F
1.66 and 1.71	1.42 and 1.43	1.16 and 1.24	1.16 and 1.14	–	C#CCCCC [1-hexyne] + CCCCCCCCCCCCCC[P+](CCCCCC)(CCCCCC)CCCCCC.F[P-](F)(F)(F)(F)F
1.96 and 1.8	1.59 and 1.61	1.36 and 1.32	1.3 and 1.27	–	C#CCCCCC [1-heptyne] + CCCCCCCCCCCCCC[P+](CCCCCC)(CCCCCC)CCCCCC.F[P-](F)(F)(F)(F)F
2.76 and 2.84	2.49 and 2.32	1.83 and 1.85	1.74 and 1.72	–	C#CCCCCCCCC [1-decyne] + CCCCCCCCCCCCCC[P+](CCCCCC)(CCCCCC)CCCCCC.F[P-](F)(F)(F)(F)F
2.5 and 2.4	1.96 and 2.02	1.65 and 1.59	1.56 and 1.52	–	C#CCCCCCCC [1-nonyne] + CCCCCCCCCCCCCC[P+](CCCCCC)(CCCCCC)CCCCCC.F[P-](F)(F)(F)(F)F
1.52 and 1.44	1.28 and 1.27	1.05 and 1.15	1.03 and 1.09	–	C#CCCC [1-pentyne] + CCCCCCCCCCCCCC[P+](CCCCCC)(CCCCCC)CCCCCC.F[P-](F)(F)(F)(F)F
1.86 and 1.9	1.58 and 1.59	1.32 and 1.36	1.27 and 1.3	–	C=CCCCCC [1-heptene] + CCCCCCCCCCCCCC[P+](CCCCCC)(CCCCCC)CCCCCC.F[P-](F)(F)(F)(F)F
2.4 and 2.5	2.01 and 1.98	1.62 and 1.63	1.54 and 1.55	–	C=CCCCCCCC [1-nonene] + CCCCCCCCCCCCCC[P+](CCCCCC)(CCCCCC)CCCCCC.F[P-](F)(F)(F)(F)F

Second part, the compound before the results:

Compound	activity coefficient ([1]; 313.15 K)	activity coefficient ([1]; 333.15 K)	activity coefficient ([1]; 353.15 K)	activity coefficient ([1]; 363.15 K)	mass density [2] [kg/m3]
CCCCC [pentane] + CCCCCCCCCCCCCC[P+](CCCCCC)(CCCCCC)CCCCCC.F[P-](F)(F)(F)(F)F	1.77 and 1.92	1.52 and 1.55	1.27 and 1.29	1.19 and 1.25	–
C1CCCC1 [cyclopentane] + CCCCCCCCCCCCCC[P+](CCCCCC)(CCCCCC)CCCCCC.F[P-](F)(F)(F)(F)F	1.35 and 1.34	1.08 and 1.14	0.901 and 0.941	0.883 and 0.871	–
CCc1ccccc1 [ethylbenzene] + CCCCCCCCCCCCCC[P+](CCCCCC)(CCCCCC)CCCCCC.F[P-](F)(F)(F)(F)F	0.961 and 1	0.783 and 0.835	0.63 and 0.694	0.626 and 0.642	–
CC(C)=O [acetone] + CCCCCCCCCCCCCC[P+](CCCCCC)(CCCCCC)CCCCCC.F[P-](F)(F)(F)(F)F	0.648 and 0.694	0.517 and 0.507	0.388 and 0.404	0.371 and 0.381	–
c1ccccc1 [benzene] + CCCCCCCCCCCCCC[P+](CCCCCC)(CCCCCC)CCCCCC.F[P-](F)(F)(F)(F)F	0.659 and 0.705	0.543 and 0.553	0.438 and 0.448	0.415 and 0.419	–
C=CCCCC [hex-1-ene] + CCCCCCCCCCCCCC[P+](CCCCCC)(CCCCCC)CCCCCC.F[P-](F)(F)(F)(F)F	1.67 and 1.7	1.41 and 1.44	1.14 and 1.26	1.13 and 1.17	–
CCO [ethanol] + CCCCCCCCCCCCCC[P+](CCCCCC)(CCCCCC)CCCCCC.F[P-](F)(F)(F)(F)F	2.21 and 2.31	1.51 and 1.49	0.989 and 1.01	0.893 and 0.911	–
C=CCCC [1-pentene] + CCCCCCCCCCCCCC[P+](CCCCCC)(CCCCCC)CCCCCC.F[P-](F)(F)(F)(F)F	1.42 and 1.54	1.24 and 1.37	1.07 and 1.13	1.05 and 1.07	–
CCCc1ccccc1 [propylbenzene] + CCCCCCCCCCCCCC[P+](CCCCCC)(CCCCCC)CCCCCC.F[P-](F)(F)(F)(F)F	1.14 and 1.1	0.939 and 0.949	0.799 and 0.779	0.777 and 0.735	–
C1CCCCC1 [cyclohexane] + CCCCCCCCCCCCCC[P+](CCCCCC)(CCCCCC)CCCCCC.F[P-](F)(F)(F)(F)F	1.46 and 1.48	1.23 and 1.21	1.05 and 0.969	0.991 and 0.951	–
CCCCCCCCC [nonane] + CCCCCCCCCCCCCC[P+](CCCCCC)(CCCCCC)CCCCCC.F[P-](F)(F)(F)(F)F	2.77 and 3.04	2.43 and 2.47	2.09 and 2.05	1.98 and 2	–
CCCCCCCCCCCCCC[P+](CCCCCC)(CCCCCC)CCCCCC.F[P-](F)(F)(F)(F)F [trihexyl(tetradecyl)phosphonium hexafluorophosphate(V)]	–	–	–	–	987.15 ± 1.1
CCCCCCCCCC [decane] + CCCCCCCCCCCCCC[P+](CCCCCC)(CCCCCC)CCCCCC.F[P-](F)(F)(F)(F)F	3.28 and 3.32	2.62 and 2.9	2.29 and 2.31	2.19 and 2.24	–
C=CCCCCCCCC [1-decene] + CCCCCCCCCCCCCC[P+](CCCCCC)(CCCCCC)CCCCCC.F[P-](F)(F)(F)(F)F	2.81 and 2.79	2.29 and 2.28	1.85 and 1.83	1.74 and 1.75	–
C1CCCCCCC1 [cyclooctane] + CCCCCCCCCCCCCC[P+](CCCCCC)(CCCCCC)CCCCCC.F[P-](F)(F)(F)(F)F	1.64 and 1.8	1.4 and 1.44	1.17 and 1.2	1.11 and 1.14	–
CCC(C)=O [butanone] + CCCCCCCCCCCCCC[P+](CCCCCC)(CCCCCC)CCCCCC.F[P-](F)(F)(F)(F)F	0.735 and 0.677	0.542 and 0.524	0.41 and 0.396	0.373 and 0.375	–
CO [methanol] + CCCCCCCCCCCCCC[P+](CCCCCC)(CCCCCC)CCCCCC.F[P-](F)(F)(F)(F)F	2.12 and 2.14	1.41 and 1.44	0.938 and 0.984	0.855 and 0.881	–
C1CCCCCC1 [cycloheptane] + CCCCCCCCCCCCCC[P+](CCCCCC)(CCCCCC)CCCCCC.F[P-](F)(F)(F)(F)F	1.57 and 1.6	1.3 and 1.33	1.08 and 1.1	1.03 and 1.05	–
C1CCCCCCCC1 [cyclononane] + CCCCCCCCCCCCCC[P+](CCCCCC)(CCCCCC)CCCCCC.F[P-](F)(F)(F)(F)F	1.88 and 1.89	1.57 and 1.6	1.32 and 1.33	1.23 and 1.3	–
Cc1ccccc1 [toluene] + CCCCCCCCCCCCCC[P+](CCCCCC)(CCCCCC)CCCCCC.F[P-](F)(F)(F)(F)F	0.772 and 0.814	0.671 and 0.639	0.535 and 0.541	0.506 and 0.516	–
